According to patent US6617350B2, “Inhibitors of aspartyl protease” (priority 1999, dated 2003):
pIC50, pKi: −log10 of the molar value. Read-outs that look alike come from different tables or passages of the source.

Columns and labels:
HIV-1 protease = HIV-1 protease (Human immunodeficiency virus type 1 group M subtype B, UniProt P04585); assay: biochemical
HIV-1 (strain IIIB) = assay: microbe, parasite or virus in culture; format: cell-based; settings: read-out: IC50
[1] = Table 12, HIV-1 protease, read-out: Ki
[2] = Human immunodeficiency virus 1, IIIB, MT4, Table 12, anti-viral potency in MT-4 cells
[3] = Table 12, anti-viral potency in MT-4 cells

CC(=O)CCC(C)(C)CN(CC(O)[C@H](Cc1ccccc1)NC(=O)OC1COC2OCCC12)S(=O)(=O)c1cccc(N(C)C)c1 (some centres unmarked) [Compound 254]
pKi (HIV-1 protease; [1]): > 9.00 | pIC50 (HIV-1 (strain IIIB); [2]): ≥ 7.00

CC(C)(CCCC#N)CN(CC(O)C(Cc1ccccc1)NC(=O)OC1COC2OCCC12)S(=O)(=O)c1ccc2c(c1)OCO2 (centres unmarked) [Compound 39]
pKi (HIV-1 protease; [1]): > 9.00 | pIC50 (HIV-1 (strain IIIB); [2]): ≥ 7.00 | pIC50 (HIV-1 (strain IIIB); Human immunodeficiency virus 1, IIIB, MT4, Table 13, MT-4 cell based assay, class symbol): 8.00 to 9.00

CC(=O)CCC(C)(C)CN(CC(O)[C@H](Cc1ccccc1)NC(=O)OC1COC2OCCC12)S(=O)(=O)c1ccc2c(c1)OCCO2 (stereo partly drawn) [Compound 252, (3R,3aS,6aR)-Hexahydrofuro[2,3-b]furan-3-yl N-((1S,2R)-3-(1,4-benzodioxan-6-sulfonyl)(2,2-dimethyl-5-oxohexyl)amino-1-benzyl-2-hydroxypropyl)carbamate]
pKi (HIV-1 protease; [1]): > 9.00 | pIC50 (HIV-1 (strain IIIB); [2]): ≥ 7.00

CC(C)(CCCN)CN(CC(O)C(Cc1ccccc1)NC(=O)OC1COC2OCCC12)S(=O)(=O)c1ccc2c(c1)OCCO2 [Compound 262, (3R,3aS,6aR)hexahydrofuro[2,3-b]furan-3-yl N-(1S,2R)-3-[(5-amino-2,2-dimethylpentyl)(2,3-dihydro-1,4-benzodioxin-6-ylsulfonyl)amino]-1-benzyl-2-hydroxypropylcarbamate]
pKi (HIV-1 protease; [1]): > 9.00 | pIC50 (HIV-1 (strain IIIB); [2]): 6.30 to 7.00

CCC(CCC#N)CN(CC(O)C(Cc1ccccc1)NC(=O)OC1CCOC1)S(=O)(=O)c1ccc(OC)cc1 [Compound 9, (3S)-Tetrahydro-3-furanyl N-((1S,2R)-1-benzyl-3-[(2RS)-4-cyano-2-ethyl][(4-methoxyphenyl)sulfonyl]amino-2-hydroxypropyl)carbamate]
pKi (HIV-1 protease; [1]): > 9.00 | pIC50 (HIV-1 (strain IIIB); [2]): < 6.00

CC(=O)Nc1ccc(S(=O)(=O)N(C[C@@H](O)[C@H](Cc2ccccc2)NC(=O)O[C@H]2CO[C@H]3OCC[C@H]32)CC(C)(C)CCC#N)cc1 [Compound 29, {(1S,2R)-3-[(4-Acetylamino-benzenesulfonyl)-(4-cyano-2,2-dimethyl-butyl)-amino]-1-benzyl-2-hydroxy-propyl}-carbamic acid (3R,3aS,6aR)hexahydro-furo[2,3-b]furan-3-yl ester]
pKi (HIV-1 protease; [1]): > 9.00 | pIC50 (HIV-1 (strain IIIB); [2]): 6.30 to 7.00

CCOC(=O)CNC(=O)NCCCC(C)(C)CN(CC(O)C(Cc1ccccc1)NC(=O)OC1COC2OCCC12)S(=O)(=O)c1ccc(OC)cc1 (mixture of isomers) [Compound 216, Ethyl (3S,4R)-1-[(3R,3aS,6aR)hexahydrofuro[2,3-b]furan-3-yloxy]-3-benzyl-4-hydroxy-6-[(4-methoxyphenyl)sulfonyl]-8,8-dimethyl-1,13-dioxo-2,6,12,14-tetraazahexadecan-16-oate and Ethyl (3S,4R)-1-[(3S,3aR,6aS)hexahydrofuro[2,3-b]furan-3-yloxy]-3-benzyl-4-hydroxy-6-[(4-methoxyphenyl)sulfonyl]-8,8-dimethyl-1,13-dioxo-2,6,12,14-tetraazahexadecan-16-oate]
pKi (HIV-1 protease; [1]): > 9.00 | pIC50 (HIV-1 (strain IIIB); [2]): ≥ 7.00

CC(=O)CCC(C)(C)CN(CC(O)[C@H](Cc1ccccc1)NC(=O)OC1COC2OCCC12)S(=O)(=O)c1cccc(N)c1 (some centres unmarked) [Compound 253]
pKi (HIV-1 protease; [1]): > 9.00 | pIC50 (HIV-1 (strain IIIB); [2]): ≥ 7.00

COc1ccc(S(=O)(=O)N(CC(O)C(Cc2ccccc2)NC(=O)OC2COC3OCCC23)CC(C)(C)CCNS(C)(=O)=O)cc1 [Compound 220, (3R,3aS,6aR)hexahydrofuro[2,3-b]furan-3-yl N-((1S,2R)-1-benzyl-3-2,2-dimethyl-4-[(methylsulfonyl)amino]butyl[(4-methoxyphenyl)sulfonyl]amino-2-hydroxypropyl)carbamate and (3S,3aR,6aS)hexahydrofuro[2,3-b]furan-3-yl N-((1S,2R)-1-benzyl-3-2,2-dimethyl-4-[(methylsulfonyl)amino]butyl[(4-methoxyphenyl)sulfonyl]amino-2-hydroxypropyl)carbamate]
pKi (HIV-1 protease): > 9.00 | pIC50 (HIV-1 (strain IIIB); [2]): ≥ 7.00

COc1ccc(S(=O)(=O)N(C[C@@H](O)[C@H](Cc2ccccc2)NC(=O)C(C)CS(C)(=O)=O)CC(C)(C)CCC#N)cc1 (stereo partly drawn) [Compound 22, 1N-(3-Methylsulfonylisobutyryl)-(1S,2R)-1-benzyl-3-(4-cyano-2,2-dimethylbutyl)[4-methoxyphenylsulfonyl]amino-2-hydroxypropyl amine]
pKi (HIV-1 protease; [1]): > 9.00 | pIC50 (HIV-1 (strain IIIB); [3]): 6.30 to 7.00

COc1ccc(S(=O)(=O)N(C[C@@H](O)[C@H](Cc2ccccc2)NC(=O)OC2COCOC2)CC(C)(C)CCC#N)cc1 [Compound 19, {(1S,2R)-1-Benzyl-3-[(4-cyano-2,2-dimethyl-butyl)-(4-methoxy-benzenesulfonyl)-amino]-2-hydroxy-propyl}-carbamic acid[1,3]dioxan-5-yl ester]
pKi (HIV-1 protease; [1]): > 9.00 | pIC50 (HIV-1 (strain IIIB); [2]): 6.30 to 7.00

COC(=O)NCCCC(C)(C)CN(C[C@@H](O)[C@H](Cc1ccccc1)NC(=O)O[C@H]1CO[C@H]2OCC[C@H]21)S(=O)(=O)c1ccc2c(c1)OCCO2 [Compound 265, (3R,3aS,6aR)hexahydrofuro[2,3-b]furan-3-yl N-[(1S,2R)-1-benzyl-3-((2,3-dihydro-1,4-benzodioxin-6-ylsulfonyl)5-[(methoxycarbonyl)amino]-2,2-dimethylpentylamino)-2-hydroxypropyl]carbamate]
pKi (HIV-1 protease; [1]): > 9.00 | pIC50 (HIV-1 (strain IIIB); [2]): ≥ 7.00

COc1ccc(S(=O)(=O)N(CC(O)C(Cc2ccccc2)NC(=O)OC2COC3OCCC23)CC(C)(C)CCCNS(C)(=O)=O)cc1 [Compound 215, (3R,3aS,6aR)hexahydrofuro[2,3-b]furan-3-yl N-((1S,2R)-1-benzyl-3-2,2-dimethyl-5-[(methylsulfonyl)amino]pentyl[(4-methoxyphenyl)sulfonyl]amino-2-hydroxypropyl)carbamate and (3S,3aR, 6aS)hexahydrofuro[2,3-b]furan-3-yl N-((1s,2R)-1-benzyl-3-2,2-dimethyl-5-[(methylsulfonyl)amino]pentyl[(4-methoxyphenyl)sulfonyl]amino-2-hydroxypropyl)carbamate]
pKi (HIV-1 protease; [1]): > 9.00 | pIC50 (HIV-1 (strain IIIB); [2]): ≥ 7.00

COc1ccc(S(=O)(=O)N(CC(C)CCC#N)CC(O)C(Cc2ccccc2)NC(=O)OC(C)(C)C)cc1 [Compound 2, ter-Butyl N-((1S,2R)-1-benzyl-3-[(2RS)-(4-cyano-2-methylbutyl)][(4-methoxyphenyl)sulfonyl]amino-2-hydroxypropyl)carbamate]
pKi (HIV-1 protease; [1]): > 9.00 | pIC50 (HIV-1 (strain IIIB); [2]): < 6.00

CC(C)(CCC#N)CN(CC(O)C(Cc1ccccc1)NC(=O)OC1COC2OCCC12)S(=O)(=O)c1ccc2c(c1)OCCO2 (centres unmarked) [Compound 41]
pKi (HIV-1 protease; [1]): > 9.00 | pIC50 (HIV-1 (strain IIIB); [3]): ≥ 7.00

COC(=O)NCCCCC(C)(C)CN(C[C@@H](O)[C@H](Cc1ccccc1)NC(=O)O[C@H]1CO[C@H]2OCC[C@H]21)S(=O)(=O)c1ccc2c(c1)OCCO2 [Compound 250, (3R,3aS,6aR)hexahydrofuro[2,3-b]furan-3-yl N-[(1S,2R)-1-benzyl-3-((2,3-dihydro-1,4-benzodioxin-6-ylsulfonyl)6-[(methoxycarbonyl)amino]-2,2-dimethylhexylamino)-2-hydroxypropyl]carbamate]
pKi (HIV-1 protease; [1]): > 9.00 | pIC50 (HIV-1 (strain IIIB); [2]): ≥ 7.00

C/C(CCC(C)(C)CN(CC(O)[C@H](Cc1ccccc1)NC(=O)OC1COC2OCCC12)S(=O)(=O)c1ccc2c(c1)OCO2)=N\O (stereo partly drawn) [Compound 260, (3R,3aS,6aR)-Hexahydrofuro[2,3-b]furan-3-yl N-((1S,2R)-1-benzyl-3-(2,2-dimethyl-5-hydroxyiminohexyl)[(3,4-methylenedioxyphenyl)sulfonyl]amino-2-hydroxypropyl)carbamate]
pKi (HIV-1 protease; [1]): > 9.00 | pIC50 (HIV-1 (strain IIIB); [2]): ≥ 7.00
